Reference: US10550124B2, “Atropisomerism for increased kinase inhibitor selectivity” (SAN DIEGO STATE UNIVERSITY RESEARCH FOUNDATION, priority 2015, dated 2020)
Several values for one entry are separate records, joined by “and”; a condition that tells them apart may be missing. Identical values can stand only once. Values belong to the molecule of their own block, whether it stands above or below them.

Key:
[1] = Experimental measurement of the barriers to rotation (chiral HPLC); assay type: physicochemical; details: for Barrier to Rotation: calculated from kobs, Gibbs free energy equation; for Barrier to Rotation kobs: observed rate constant of racemization, in ethanol, heated at constant temperature, in s^-1 (unit assumed)
Protocol: Enantiomerically enriched atropisomeric pyrrolopyrimidine analogues were isolated via chiral HPLC (Daicel Chiralpak IA PN:80335, 3 mL/min, 80:20 or 50:50 hexanes:[…], 25° C.) and evaporated in vacuo. The enantiomerically enriched analogues were then dissolved in ethanol and placed in a sealed 2-dram vial and heated under constant temperature on an aluminum block. At each time point, an aliquot of the mixture was removed and quenched in an HPLC vial containing ice cold 80:20 hexanes:ethanol. Each sample was then injected into the chiral HPLC system (Daicel Chiralpak IA PN:80325, 1 mL/min, 80:20 or 50:50 hexanes:ethanol, 25° C.) and enantiomeric excess (ee) measured. The timepoint and enantiomeric excess (ee) data was then plotted in order to determine an observed rate constant, kobs, at the corresponding temperature. The barrier to rotation was then calculated using the relationship of kracemization=2*kenantiomerization and then substituted into the Gibbs Free Energy Equation:
[formula] where h=Planck Constant, kb=Boltzmann Constant, T=Temp. (K), R=Gas Constant.

pdgfr-b = pdgfr-b (Homo sapiens, UniProt P09619); assay: Z′-LYTE kinase inhibition assay, pdgfr-b; assay type: biochemical; details: average of 2 runs
From the text: (§1) All samples were sent out to Life Technologies to obtain kinase inhibition data. A brief description of the assays and analyses are included below.
(§2) Assay Theory (SelectScreen® Kinase Profiling Services (Life Technologies, Madison, Wis. USA). The Z′-LYTE® biochemical assay employs a fluorescence-based, coupled-enzyme format and is based on the differential sensitivity of phosphorylated and non-phosphorylated peptides to proteolytic cleavage. The peptide substrate is labeled with two fluorophores one at each end—that make up a FRET pair.
(§3) In the primary reaction, the kinase transfers the gamma-phosphate of ATP to a single tyrosine, serine or threonine residue in a synthetic FRET-peptide. In the secondary reaction, a site-specific protease recognizes and cleaves non-phosphorylated FRET-peptides.
(§4) Phosphorylation of FRET-peptides suppresses cleavage by the Development Reagent. Cleavage disrupts FRET between the donor (i.e., coumarin) and acceptor (i.e., fluorescein) fluorophores on the FRET-peptide, whereas uncleaved, phosphorylated FRET-peptides maintain FRET. A ratiometric method, which calculates the ratio (the Emission Ratio) of donor emission to acceptor emission after excitation of the donor fluorophore at 400 nm, is used to quantitate reaction progress, as shown in the equation below: […]
(§5) A significant benefit of this ratiometric method for quantitating reaction progress is the elimination of well-to-well variations in FRET-peptide concentration and signal intensities. As a result, the assay yields very high Z′-factor values (>0.7) at a low percent phosphorylation. Both cleaved and uncleaved FRET-peptides contribute to the fluorescence signals and therefore to the Emission Ratio. The extent of phosphorylation of the FRET-peptide can be calculated from the Emission Ratio. The Emission Ratio will remain low if the FRET-peptide is phosphorylated (i.e., no kinase inhibition) and will he high if the FRET-peptide is non-phosphorylated (i.e., kinase inhibition).

Src kinase = Src kinase (Homo sapiens, UniProt P12931); assay: Z′-LYTE kinase inhibition assay, Src; assay type: biochemical; details: for IC50: Src, error is standard deviation
Chain of Src kinase (P12931 whole entry): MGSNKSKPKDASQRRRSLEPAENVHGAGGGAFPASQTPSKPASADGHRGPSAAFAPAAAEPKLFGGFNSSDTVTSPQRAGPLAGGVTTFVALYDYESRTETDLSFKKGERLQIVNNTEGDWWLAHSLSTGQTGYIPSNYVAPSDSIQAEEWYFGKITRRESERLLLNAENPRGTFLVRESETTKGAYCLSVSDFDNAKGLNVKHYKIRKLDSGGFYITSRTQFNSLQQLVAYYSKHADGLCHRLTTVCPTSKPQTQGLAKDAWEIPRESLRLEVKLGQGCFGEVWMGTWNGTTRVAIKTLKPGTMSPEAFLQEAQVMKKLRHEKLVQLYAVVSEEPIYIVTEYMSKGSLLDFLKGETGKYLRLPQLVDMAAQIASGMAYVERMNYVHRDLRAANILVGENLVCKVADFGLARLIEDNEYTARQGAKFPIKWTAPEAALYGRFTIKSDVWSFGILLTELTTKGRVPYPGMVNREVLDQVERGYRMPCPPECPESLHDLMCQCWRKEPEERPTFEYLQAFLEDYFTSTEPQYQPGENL
From the text: Based on the observed stereochemical stabilities, we chose 1f, 2e, and 2f for further study and obtained inhibition data against Src kinase from Life Technologies' Z′-LYTE™ kinase assay (Scheme 3).
as §1, §2, §3, §4, §5

[2] = tested on: panel of 18 tyrosine kinases; assay: Kinase inhibitor profiling across a panel of tyrosine kinases (selectivity); assay type: biochemical; details: for S(40%): number of kinases inhibited greater than 40% divided by number of kinases tested (including Src)
Protocol: In order to probe the effect of atropisomeric conformation on kinase selectivity we subjected 1f, 2e, and 2f to kinase inhibitor profiling across a panel of tyrosine kinases at 1000 nM and 5000 nM (data for 2e shown in Scheme 4 below).
To analyze each analog's selectivity across the panel we turned to selectivity scores (Davis et al., Nat. Biotechnol. 2011, 29, 1046-51), simply the number of kinases inhibited above a certain threshold divided by the number of kinases evaluated. […] For example at 1000 nM 2e-(R) yielded an S(40%) of 0.11 while 2e-(S) gave an S(40%) of 0.16. […] Differences in selectivity between 2e-(R) and 2e-(S) at 5000 nM (4.5 times the IC50 of 2e-(S) toward Src) and for 5 at 1000 nM (6.25 times the IC50 of 5 toward Src) can be viewed graphically across tyrosine kinases (FIG. 3). Importantly, similar trends were also observed across each of the atropisomeric series tested.
as §1, §2, §3, §4, §5

EGFR = EGFR (Homo sapiens, UniProt P00533); assay: Z′-LYTE kinase inhibition assay, EGFR; assay type: biochemical
Chain of EGFR (P00533 25-1210): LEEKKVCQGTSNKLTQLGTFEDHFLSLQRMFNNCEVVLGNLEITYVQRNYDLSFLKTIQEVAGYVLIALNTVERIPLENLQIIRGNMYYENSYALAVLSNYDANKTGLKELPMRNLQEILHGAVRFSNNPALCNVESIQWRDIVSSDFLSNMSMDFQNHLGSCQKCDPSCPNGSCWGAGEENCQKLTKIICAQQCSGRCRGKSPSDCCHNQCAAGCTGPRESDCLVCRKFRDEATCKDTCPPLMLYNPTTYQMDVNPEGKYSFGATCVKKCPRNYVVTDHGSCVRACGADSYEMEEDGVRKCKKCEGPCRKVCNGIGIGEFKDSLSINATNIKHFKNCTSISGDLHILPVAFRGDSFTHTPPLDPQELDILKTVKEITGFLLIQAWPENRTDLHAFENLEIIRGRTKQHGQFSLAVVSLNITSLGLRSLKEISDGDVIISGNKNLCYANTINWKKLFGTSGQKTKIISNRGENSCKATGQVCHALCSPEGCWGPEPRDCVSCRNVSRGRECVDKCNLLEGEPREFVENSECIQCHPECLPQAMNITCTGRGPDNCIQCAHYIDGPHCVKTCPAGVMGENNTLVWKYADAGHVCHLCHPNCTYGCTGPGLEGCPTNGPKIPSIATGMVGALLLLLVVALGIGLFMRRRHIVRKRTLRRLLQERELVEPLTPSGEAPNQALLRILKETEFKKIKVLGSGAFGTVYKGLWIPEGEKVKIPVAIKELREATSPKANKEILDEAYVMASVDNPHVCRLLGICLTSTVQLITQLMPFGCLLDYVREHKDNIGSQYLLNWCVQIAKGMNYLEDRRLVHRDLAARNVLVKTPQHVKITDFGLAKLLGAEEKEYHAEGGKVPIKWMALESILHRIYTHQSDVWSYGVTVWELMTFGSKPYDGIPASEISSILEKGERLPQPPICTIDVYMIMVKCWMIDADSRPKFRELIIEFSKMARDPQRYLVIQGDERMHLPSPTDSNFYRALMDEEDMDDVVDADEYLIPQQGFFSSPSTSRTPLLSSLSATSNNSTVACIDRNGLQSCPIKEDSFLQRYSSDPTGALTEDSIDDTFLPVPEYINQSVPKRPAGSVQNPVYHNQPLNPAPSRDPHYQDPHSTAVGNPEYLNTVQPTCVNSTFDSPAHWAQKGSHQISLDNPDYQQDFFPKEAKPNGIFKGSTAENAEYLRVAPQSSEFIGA
From the text: as §1, §2, §3, §4, §5

Abl = Abl (Homo sapiens, UniProt P00519); assay: Z′-LYTE kinase inhibition assay, Abl; assay type: biochemical
Chain of Abl (P00519 whole entry): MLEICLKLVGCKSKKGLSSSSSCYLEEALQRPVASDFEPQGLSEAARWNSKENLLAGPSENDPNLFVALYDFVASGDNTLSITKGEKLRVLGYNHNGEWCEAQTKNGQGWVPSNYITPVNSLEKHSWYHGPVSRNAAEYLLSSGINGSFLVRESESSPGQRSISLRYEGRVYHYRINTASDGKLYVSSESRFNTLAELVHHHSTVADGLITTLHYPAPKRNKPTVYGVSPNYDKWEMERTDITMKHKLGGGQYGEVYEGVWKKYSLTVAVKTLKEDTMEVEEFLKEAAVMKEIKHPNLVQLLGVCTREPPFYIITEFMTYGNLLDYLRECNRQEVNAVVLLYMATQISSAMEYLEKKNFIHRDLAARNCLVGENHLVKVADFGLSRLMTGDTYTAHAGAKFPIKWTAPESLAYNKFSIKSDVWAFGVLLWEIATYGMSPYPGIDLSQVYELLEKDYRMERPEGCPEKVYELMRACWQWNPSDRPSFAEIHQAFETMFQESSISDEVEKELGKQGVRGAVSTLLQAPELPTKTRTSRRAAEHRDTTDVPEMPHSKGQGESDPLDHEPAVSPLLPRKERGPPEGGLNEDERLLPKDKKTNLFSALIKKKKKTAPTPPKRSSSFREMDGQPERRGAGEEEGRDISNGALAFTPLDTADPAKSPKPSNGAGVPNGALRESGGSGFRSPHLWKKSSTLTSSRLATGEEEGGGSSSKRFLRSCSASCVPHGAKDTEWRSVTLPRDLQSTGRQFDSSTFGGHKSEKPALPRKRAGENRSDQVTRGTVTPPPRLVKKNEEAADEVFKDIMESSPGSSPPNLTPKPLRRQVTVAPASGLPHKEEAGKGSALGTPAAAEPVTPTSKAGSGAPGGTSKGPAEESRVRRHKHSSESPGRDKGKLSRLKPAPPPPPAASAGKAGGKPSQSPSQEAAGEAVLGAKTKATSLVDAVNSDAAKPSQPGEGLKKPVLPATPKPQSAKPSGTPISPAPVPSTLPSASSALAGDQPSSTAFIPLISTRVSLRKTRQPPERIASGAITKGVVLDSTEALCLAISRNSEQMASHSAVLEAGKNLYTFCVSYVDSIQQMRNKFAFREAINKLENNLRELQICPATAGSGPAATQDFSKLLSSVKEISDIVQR
From the text: as §1, §2, §3, §4, §5

pdgfr-a = pdgfr-a (Homo sapiens, UniProt P16234); assay: Z′-LYTE kinase inhibition assay, pdgfr-a; assay type: biochemical; details: average of 2 runs
From the text: as §1, §2, §3, §4, §5

BTK = BTK (Homo sapiens, UniProt Q06187); assay: Z′-LYTE kinase inhibition assay, BTK; assay type: biochemical; details: average of 2 runs
From the text: as §1, §2, §3, §4, §5

CSK = CSK (Homo sapiens, UniProt P41240); assay: Z′-LYTE kinase inhibition assay, CSK; assay type: biochemical; details: average of 2 runs
From the text: as §1, §2, §3, §4, §5

Fyn = Fyn (Homo sapiens, UniProt P06241); assay: Z′-LYTE kinase inhibition assay, Fyn; assay type: biochemical; details: average of 2 runs
Chain of Fyn (P06241 whole entry): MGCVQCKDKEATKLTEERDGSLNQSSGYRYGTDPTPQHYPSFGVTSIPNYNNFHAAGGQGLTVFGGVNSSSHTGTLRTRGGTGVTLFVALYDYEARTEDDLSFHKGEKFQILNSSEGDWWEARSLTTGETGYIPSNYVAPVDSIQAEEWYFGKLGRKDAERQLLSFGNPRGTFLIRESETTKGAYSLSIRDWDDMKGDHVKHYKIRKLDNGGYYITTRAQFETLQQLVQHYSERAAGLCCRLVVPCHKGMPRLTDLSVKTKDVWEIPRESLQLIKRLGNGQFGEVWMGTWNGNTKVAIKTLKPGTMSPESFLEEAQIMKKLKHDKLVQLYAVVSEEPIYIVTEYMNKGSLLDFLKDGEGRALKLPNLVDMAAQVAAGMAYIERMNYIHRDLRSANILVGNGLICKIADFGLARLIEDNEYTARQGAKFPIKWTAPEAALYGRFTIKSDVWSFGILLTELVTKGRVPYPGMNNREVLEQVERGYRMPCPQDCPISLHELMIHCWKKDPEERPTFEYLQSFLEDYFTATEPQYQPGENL
From the text: as §1, §2, §3, §4, §5

Kit = Kit (Homo sapiens, UniProt P10721); assay: Z′-LYTE kinase inhibition assay, Kit; assay type: biochemical; details: average of 2 runs
From the text: as §1, §2, §3, §4, §5

Lck = Lck (Homo sapiens, UniProt P06239); assay: Z′-LYTE kinase inhibition assay, Lck; assay type: biochemical; details: average of 2 runs
From the text: as §1, §2, §3, §4, §5

Alk = Alk (Homo sapiens, UniProt Q9UM73); assay: Z′-LYTE kinase inhibition assay, Alk; assay type: biochemical; details: average of 2 runs
From the text: as §1, §2, §3, §4, §5

Hck = Hck (Homo sapiens, UniProt P08631); assay: Z′-LYTE kinase inhibition assay, Hck; assay type: biochemical; details: average of 2 runs
From the text: as §1, §2, §3, §4, §5

Yes = Yes (Homo sapiens, UniProt P07947); assay: Z′-LYTE kinase inhibition assay, Yes; assay type: biochemical
Chain of Yes (P07947 whole entry): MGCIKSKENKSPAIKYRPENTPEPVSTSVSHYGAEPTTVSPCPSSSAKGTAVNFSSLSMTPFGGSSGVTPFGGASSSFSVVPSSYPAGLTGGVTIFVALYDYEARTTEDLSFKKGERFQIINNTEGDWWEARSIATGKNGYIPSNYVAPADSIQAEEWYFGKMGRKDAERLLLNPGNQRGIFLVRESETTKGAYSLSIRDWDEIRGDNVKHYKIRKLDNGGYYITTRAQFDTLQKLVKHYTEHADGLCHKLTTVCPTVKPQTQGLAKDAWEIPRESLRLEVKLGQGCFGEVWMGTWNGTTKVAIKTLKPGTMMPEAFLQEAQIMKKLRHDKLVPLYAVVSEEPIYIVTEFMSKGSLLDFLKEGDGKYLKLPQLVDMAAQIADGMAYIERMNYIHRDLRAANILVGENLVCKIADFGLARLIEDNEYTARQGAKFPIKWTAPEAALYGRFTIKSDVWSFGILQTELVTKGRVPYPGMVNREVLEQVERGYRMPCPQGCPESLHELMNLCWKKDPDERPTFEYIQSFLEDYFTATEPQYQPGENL
From the text: as §1, §2, §3, §4, §5

Ret = Ret (Homo sapiens, UniProt P07949); assay: Z′-LYTE kinase inhibition assay, Ret; assay type: biochemical
Chain of Ret (P07949 29-1114): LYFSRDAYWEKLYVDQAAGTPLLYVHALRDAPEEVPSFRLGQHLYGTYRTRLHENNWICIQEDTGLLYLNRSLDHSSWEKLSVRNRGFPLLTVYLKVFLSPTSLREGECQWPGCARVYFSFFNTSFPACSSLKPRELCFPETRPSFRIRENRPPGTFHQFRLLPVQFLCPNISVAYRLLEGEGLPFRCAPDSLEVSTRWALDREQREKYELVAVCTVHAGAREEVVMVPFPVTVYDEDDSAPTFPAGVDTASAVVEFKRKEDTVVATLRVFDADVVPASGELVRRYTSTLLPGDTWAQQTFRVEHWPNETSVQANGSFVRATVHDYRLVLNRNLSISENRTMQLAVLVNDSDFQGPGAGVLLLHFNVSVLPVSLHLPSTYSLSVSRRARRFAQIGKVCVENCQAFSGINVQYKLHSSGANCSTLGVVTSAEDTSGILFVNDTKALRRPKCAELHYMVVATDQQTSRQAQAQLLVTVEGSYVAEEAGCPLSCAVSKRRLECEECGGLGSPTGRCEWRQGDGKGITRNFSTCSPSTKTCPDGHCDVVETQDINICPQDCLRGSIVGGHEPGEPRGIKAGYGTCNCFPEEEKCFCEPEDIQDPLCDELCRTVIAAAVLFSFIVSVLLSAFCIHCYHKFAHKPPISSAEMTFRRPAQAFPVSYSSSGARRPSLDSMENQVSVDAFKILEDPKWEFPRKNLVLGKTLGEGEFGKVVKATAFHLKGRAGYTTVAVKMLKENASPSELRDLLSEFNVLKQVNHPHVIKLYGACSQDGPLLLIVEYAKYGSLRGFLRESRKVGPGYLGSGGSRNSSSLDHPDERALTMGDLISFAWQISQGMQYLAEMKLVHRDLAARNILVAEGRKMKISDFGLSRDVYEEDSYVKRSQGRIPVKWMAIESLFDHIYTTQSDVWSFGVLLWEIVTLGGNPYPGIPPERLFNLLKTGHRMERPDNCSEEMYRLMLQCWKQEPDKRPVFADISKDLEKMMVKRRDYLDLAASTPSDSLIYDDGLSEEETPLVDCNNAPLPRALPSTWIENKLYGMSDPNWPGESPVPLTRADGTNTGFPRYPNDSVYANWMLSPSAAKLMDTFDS
From the text: as §1, §2, §3, §4, §5

Her-2 = Her-2 (Homo sapiens, UniProt P04626); assay: Z′-LYTE kinase inhibition assay, Her-2; assay type: biochemical; details: average of 2 runs
From the text: as §1, §2, §3, §4, §5

Fgr = Fgr (Homo sapiens, UniProt P09769); assay: Z′-LYTE kinase inhibition assay, Fgr; assay type: biochemical; details: average of 2 runs
From the text: as §1, §2, §3, §4, §5

Lyn = Lyn (Homo sapiens, UniProt P07948); assay: Z′-LYTE kinase inhibition assay, Lyn; assay type: biochemical; details: average of 2 runs
From the text: as §1, §2, §3, §4, §5

Blk = Blk (Homo sapiens, UniProt P51451); assay: Z′-LYTE kinase inhibition assay, Blk; assay type: biochemical; details: average of 2 runs
From the text: as §1, §2, §3, §4, §5

Barrier to Rotation [1]: 127 kJ/mol
SMILES: COc1ccc(Br)c(-c2c(Cl)n(C(C)(C)C)c3ncnc(N)c23)c1 (racemic) [Compound 2f, 5-(2-bromo-5-methoxyphenyl)-7-(tert-butyl)-6-chloro-7H-pyrrolo[2,3-d]pyrimidin-4-amine]
Barrier to Rotation kobs [1]: 2.68E−05

inhibition at 0.2 µM (pdgfr-b; 200 nM): 6% | inhibition at 1 µM (pdgfr-b; 1000 nM): 19% | IC50 of Kinase/IC50 of Yes (Src kinase; Src relative to Yes): 1.64 | IC50 (Src kinase): 0.151 µM | S(40%) ([2]; 200 nM): 0.44 | S(40%) ([2]; 1000 nM): 0.72 | relative selectivities favoring Yes (IC50 kinase/IC50 YES) over Ret, Src, and Abl ([2]; Ret, Src, Abl vs Yes): 1.4-2.65 fold | IC50 of Kinase/IC50 of Yes (EGFR; EGFR relative to Yes): 7 and 6.96 | inhibition at 0.2 µM (EGFR; EGFR, 200 nM, average of 2 runs): 28% | inhibition at 1 µM (EGFR; EGFR, 1000 nM, average of 2 runs): 62% | IC50 (EGFR; EGFR, error is standard deviation): 0.641 µM | IC50 of Kinase/IC50 of Yes (Abl; Abl relative to Yes): 2.65 | inhibition at 0.2 µM (Abl; Abl, 200 nM, average of 2 runs): 37% | inhibition at 1 µM (Abl; Abl, 1000 nM, average of 2 runs): 78% | IC50 (Abl; Abl, error is standard deviation): 0.244 µM | inhibition at 0.2 µM (pdgfr-a; 200 nM): 11% | inhibition at 1 µM (pdgfr-a; 1000 nM): 34% | inhibition at 0.2 µM (BTK; 200 nM): 62% | inhibition at 1 µM (BTK; 1000 nM): 90% | inhibition at 0.2 µM (CSK; 200 nM): 36% | inhibition at 1 µM (CSK; 1000 nM): 65% | inhibition at 0.2 µM (Fyn; 200 nM): 56% | inhibition at 1 µM (Fyn; 1000 nM): 84% | inhibition at 0.2 µM (Kit; 200 nM): 8% | inhibition at 1 µM (Kit; 1000 nM): 27% | inhibition at 0.2 µM (Lck; 200 nM): 32% | inhibition at 1 µM (Lck; 1000 nM): 79% | inhibition at 0.2 µM (Alk; 200 nM): 11% | inhibition at 1 µM (Alk; 1000 nM): 23% | inhibition at 0.2 µM (Hck; 200 nM): 59% | inhibition at 1 µM (Hck; 1000 nM): 80% | IC50 of Kinase/IC50 of Yes (Yes; Yes relative to Yes): 1 | inhibition at 0.2 µM (Yes; Yes, 200 nM, average of 2 runs): 63% | inhibition at 1 µM (Yes; Yes, 1000 nM, average of 2 runs): 90% | IC50 (Yes; Yes, error is standard deviation): 0.092 µM | IC50 of Kinase/IC50 of Yes (Ret; Ret relative to Yes): 1.4 | inhibition at 0.2 µM (Ret; Ret, 200 nM, average of 2 runs): 59% | inhibition at 1 µM (Ret; Ret, 1000 nM, average of 2 runs): 89% | IC50 (Ret; Ret, error is standard deviation): 0.128 µM | inhibition at 0.2 µM (Her-2; 200 nM): 4% | inhibition at 1 µM (Her-2; 1000 nM): 16% | inhibition at 0.2 µM (Fgr; 200 nM): 69% | inhibition at 1 µM (Fgr; 1000 nM): 92% | inhibition at 0.2 µM (Lyn; 200 nM): 58% | inhibition at 1 µM (Lyn; 1000 nM): 85% | inhibition at 0.2 µM (Blk; 200 nM): 38% | inhibition at 1 µM (Blk; 1000 nM): 74%
SMILES: COc1cccc(-c2cn(C(C)(C)C)c3ncnc(N)c23)c1 [Compound 5, reference compound]

Barrier to Rotation [1]: 121 kJ/mol
SMILES: COc1ccc(Br)c(-c2c(Cl)n(C3CCCC3)c3ncnc(N)c23)c1 (racemic) [Compound 1f, 5-(2-bromo-5-methoxyphenyl)-6-chloro-7-cyclopentyl-7H-pyrrolo[2,3-d]pyrimidin-4-amine]
Barrier to Rotation kobs [1]: 1.01E−05

IC50 (Src kinase): 1.3 µM
SMILES: COc1ccc(Br)c(-c2c(Cl)n(C3CCCC3)c3ncnc(N)c23)c1 (single isomer, unassigned) [1f-(S), 5-(2-bromo-5-methoxyphenyl)-6-chloro-7-cyclopentyl-7H-pyrrolo[2,3-d]pyrimidin-4-amine]

Barrier to Rotation [1]: 114 kJ/mol
SMILES: COc1ccc(Cl)c(-c2c(Cl)n(C3CCCC3)c3ncnc(N)c23)c1 [Compound 1e, 6-chloro-5-(2-chloro-5-methoxyphenyl)-7-cyclopentyl-7H-pyrrolo[2,3-d]pyrimidin-4-amine]
Barrier to Rotation kobs [1]: 1.24E−04

Barrier to Rotation [1]: 120 kJ/mol
SMILES: COc1ccc(Cl)c(-c2c(Cl)n(C(C)(C)C)c3ncnc(N)c23)c1 (racemic) [Compound 2e, 7-(tert-butyl)-6-chloro-5-(2-chloro-5-methoxyphenyl)-7H-pyrrolo[2,3d]pyrimidin-4-amine]
Barrier to Rotation kobs [1]: 3.27E−05

IC50 (Src kinase): > 10 µM
SMILES: COc1ccc(Br)c(-c2c(Cl)n(C3CCCC3)c3ncnc(N)c23)c1 (single isomer, unassigned) [1f-(R), 5-(2-bromo-5-methoxyphenyl)-6-chloro-7-cyclopentyl-7H-pyrrolo[2,3-d]pyrimidin-4-amine]
